Test [1] concerns the target T1, Histone-lysine N-methyltransferase NSD2 (Homo sapiens, UniProt O96028).
T1 sequence (O96028 whole entry): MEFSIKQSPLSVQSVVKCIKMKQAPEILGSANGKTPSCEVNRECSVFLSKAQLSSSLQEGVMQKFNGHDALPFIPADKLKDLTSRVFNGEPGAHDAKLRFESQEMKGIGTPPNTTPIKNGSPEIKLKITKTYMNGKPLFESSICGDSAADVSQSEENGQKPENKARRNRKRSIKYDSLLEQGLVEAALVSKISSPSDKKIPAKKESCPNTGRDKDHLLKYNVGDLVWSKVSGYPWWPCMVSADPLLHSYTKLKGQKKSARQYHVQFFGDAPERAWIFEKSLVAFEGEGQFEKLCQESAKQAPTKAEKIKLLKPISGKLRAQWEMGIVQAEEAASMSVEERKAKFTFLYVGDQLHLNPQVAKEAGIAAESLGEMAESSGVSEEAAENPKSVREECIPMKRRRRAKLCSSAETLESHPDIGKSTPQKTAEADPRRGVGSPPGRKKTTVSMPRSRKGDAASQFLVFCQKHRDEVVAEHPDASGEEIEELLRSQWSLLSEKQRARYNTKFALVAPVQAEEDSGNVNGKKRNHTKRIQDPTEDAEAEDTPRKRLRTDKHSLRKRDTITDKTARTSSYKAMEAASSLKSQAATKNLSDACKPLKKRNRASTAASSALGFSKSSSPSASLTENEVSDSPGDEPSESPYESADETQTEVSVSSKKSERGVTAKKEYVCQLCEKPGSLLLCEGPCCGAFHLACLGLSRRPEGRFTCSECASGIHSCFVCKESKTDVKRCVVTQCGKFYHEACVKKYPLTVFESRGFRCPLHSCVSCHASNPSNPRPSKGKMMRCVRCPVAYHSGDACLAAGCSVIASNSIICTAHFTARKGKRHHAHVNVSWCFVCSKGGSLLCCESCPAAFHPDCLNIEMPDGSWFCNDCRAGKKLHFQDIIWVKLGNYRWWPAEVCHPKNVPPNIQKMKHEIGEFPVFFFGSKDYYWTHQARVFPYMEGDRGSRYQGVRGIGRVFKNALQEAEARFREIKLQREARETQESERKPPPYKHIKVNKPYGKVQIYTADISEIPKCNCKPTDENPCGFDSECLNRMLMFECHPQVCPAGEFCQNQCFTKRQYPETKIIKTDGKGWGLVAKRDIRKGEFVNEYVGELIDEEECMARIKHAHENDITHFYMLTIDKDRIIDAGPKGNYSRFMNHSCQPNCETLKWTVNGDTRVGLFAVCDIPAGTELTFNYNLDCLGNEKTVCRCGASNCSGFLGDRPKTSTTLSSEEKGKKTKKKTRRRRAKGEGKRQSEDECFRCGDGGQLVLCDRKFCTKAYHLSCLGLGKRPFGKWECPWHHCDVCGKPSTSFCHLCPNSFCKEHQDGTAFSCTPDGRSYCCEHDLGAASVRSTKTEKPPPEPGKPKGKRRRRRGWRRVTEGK
Format: biochemical.

The target in test [2] is T2, Apoptotic protease-activating factor 1 (Homo sapiens, UniProt O14727).
T2 sequence (O14727 whole entry): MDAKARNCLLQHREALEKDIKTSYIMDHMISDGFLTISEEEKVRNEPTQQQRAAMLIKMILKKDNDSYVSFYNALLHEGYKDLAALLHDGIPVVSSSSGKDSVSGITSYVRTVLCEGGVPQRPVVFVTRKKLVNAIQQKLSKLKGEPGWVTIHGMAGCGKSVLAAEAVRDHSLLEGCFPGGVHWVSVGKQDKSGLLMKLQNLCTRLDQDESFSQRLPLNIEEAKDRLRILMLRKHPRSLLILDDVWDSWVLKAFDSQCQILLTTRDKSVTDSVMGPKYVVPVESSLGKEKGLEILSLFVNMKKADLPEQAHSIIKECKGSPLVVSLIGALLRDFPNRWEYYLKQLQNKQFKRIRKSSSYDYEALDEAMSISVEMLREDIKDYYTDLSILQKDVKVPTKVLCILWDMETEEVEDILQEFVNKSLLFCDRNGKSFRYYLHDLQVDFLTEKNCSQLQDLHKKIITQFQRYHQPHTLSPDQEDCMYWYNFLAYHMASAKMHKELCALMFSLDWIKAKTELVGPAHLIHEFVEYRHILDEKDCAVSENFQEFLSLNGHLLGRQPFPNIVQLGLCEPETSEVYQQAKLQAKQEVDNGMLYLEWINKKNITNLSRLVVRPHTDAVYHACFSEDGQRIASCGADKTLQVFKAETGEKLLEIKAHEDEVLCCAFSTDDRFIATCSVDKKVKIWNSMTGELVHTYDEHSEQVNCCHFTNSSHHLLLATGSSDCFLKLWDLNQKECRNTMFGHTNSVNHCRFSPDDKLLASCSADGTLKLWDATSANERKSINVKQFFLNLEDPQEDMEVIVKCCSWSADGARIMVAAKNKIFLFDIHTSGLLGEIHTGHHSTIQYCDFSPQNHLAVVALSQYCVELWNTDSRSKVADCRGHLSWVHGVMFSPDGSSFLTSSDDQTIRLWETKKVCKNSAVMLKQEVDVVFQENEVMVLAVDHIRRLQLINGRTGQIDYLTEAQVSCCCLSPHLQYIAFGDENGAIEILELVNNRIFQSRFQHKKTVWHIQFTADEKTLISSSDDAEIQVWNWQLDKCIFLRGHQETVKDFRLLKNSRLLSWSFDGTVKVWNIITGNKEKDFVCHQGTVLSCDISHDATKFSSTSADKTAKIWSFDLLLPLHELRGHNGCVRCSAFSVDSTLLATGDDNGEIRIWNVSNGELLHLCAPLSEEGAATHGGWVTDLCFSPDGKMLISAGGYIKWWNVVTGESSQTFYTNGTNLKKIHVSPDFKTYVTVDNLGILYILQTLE
Format: functional.

AC50 and IC50 data for five compounds are collected here from ChEMBL document CHEMBL1201862, “PubChem BioAssay data set” (2004).

The source made the active and inactive calls.

`CC(C)[n+]1ccn(C2=C([N-]S(=O)(=O)c3ccccc3)C(=O)c3ccccc3C2=O)c1`: in test [1], the AC50 was 5.79 µM (active). Further, the IC50 in test [2] is 7.16 µM (active).
For `CCCCCCCCCCOC(=O)Cn1c(COc2ccccc2)[n+](C)c2ccccc21`, the IC50 in test [2] is 12.6 µM (active).
Consider `COc1cc(-c2nnc(SCc3cc(=O)oc4cc(O)c(O)cc34)o2)cc(OC)c1OC`, for which the AC50 in test [1] is 0.665 µM (active).
Consider `CCOC(=O)c1c(-c2ccc(-c3ccccc3)cc2)csc1NC(=O)CNCCN(C)C`, for which the IC50 in test [2] was 32.5 µM (active).
With `N#Cc1c(NC(=O)c2ccc(Br)o2)n(-c2ccccc2)c2nc3ccccc3nc12`, the AC50 in test [1] was 11.6 µM (active). The IC50 in test [2] is 7.22 µM (active).

Usually AC50 stands for the concentration giving half of the maximal activity seen. As a reminder, the IC50 is the concentration at which inhibition is half-maximal.
